Results from US9239331B2, “Method for predicting the response to HER2-directed therapy” (Ventana Medical Systems, Inc., priority 2002, dated 2016).

Test system: breast cancer patients
Assay: Patient response in breast cancer tissue microarray cohort: chemotherapy together with HERCEPTIN®, response from case histories at last follow-up
Format: in vivo, human
Conditions: treatment following surgery (followed by Herceptin ®)
Description: Immunohistochemistry for detecting and measuring predictive biomarker expression, activation or both was performed as follows. HER2/neu, EGFR, HER3, IGFR, TGF-α, Heregulin (NDF), p-ERK, p-AKT, and p-S6 ribosomal protein or phosphorylation levels were quantified using alkaline phosphatase or peroxidase techniques and microscope-based image analysis of immunohistochemically stained slides (as described in Bacus et al., 1997, Analyt. Quant. Cytol. Histol. 19: 316-328). Quantification was by means of a CAS 200 image analyzer, as previously described (Bacus & Ruby, 1993, Pathol Annu, 28: 179-204). For the purpose of the analysis, tumors were classified as negative or positive for each antibody based upon the level of staining. Statistical analysis was performed using Systat to quantify frequencies and calculate Pearson Chi-squared tests of significance for interactions between variables. In all cases, the p value refers to the significance of the deviation of the distribution of samples from what would be expected based upon the overall population distribution. Comparisons were performed only on samples for which all relevant data were available. […] All patients had received post-surgical radiotherapy. The tissue samples in the array were taken before treatment. HER2/neu expression had been determined by using the […] system (DAKO, Carpinteria, Calif.) on the original biopsies for all patients. Patient response was based upon the case histories at last follow-up as decided by an independent pathologist provided by Clinomics.

SMILES: CC(=O)O[C@H]1C(=O)[C@@]2(C)[C@H]([C@H](OC(=O)c3ccccc3)[C@]3(O)C[C@H](OC(=O)[C@H](O)[C@@H](NC(=O)c4ccccc4)c4ccccc4)C(C)=C1C3(C)C)[C@]1(OC(C)=O)CO[C@@H]1C[C@@H]2O [Paclitaxel]
- disease-free or stable disease: 100%
- relapse: 0%

SMILES: COc1cccc2c1C(=O)c1c(O)c3c(c(O)c1C2=O)C[C@@](O)(C(=O)CO)C[C@@H]3O[C@H]1C[C@H](N)[C@H](O)[C@H](C)O1 [Doxorubicin]
- disease-free or stable disease: 2%
- relapse: 98%
